Test results published in patent US9416111B2, “Substituted diazine and triazine spleen tyrosine kinease (Syk) inhibitors” (Merck Sharp & Dohme Corp., priority 2012, dated 2016).
“And” between values parts separate entries of the source, which are not always exact repeats. Identical values can stand only once. Like-named read-outs stand apart in the source and are kept apart here.

Target: T1, recombinant human GST-SYK (Homo sapiens, UniProt P43405)
T1 construct: purchased Carna Biosciences 08-176
Test: Homogeneous Time-Resolved Fluorescence (HTRF) assay for the recombinant human Syk enzyme
Type: biochemical
Conditions: GST-hSYK 5 pM, ATP 25 μM
Description: Homogeneous Time-Resolved Fluorescence (HTRF) Assay for the Recombinant Human Syk Enzyme
A recombinant GST-hSYK fusion protein was used to measure potency of compounds to inhibit human Syk activity. The recombinant human GST-SYK (Carna Biosciences #08-176) (5 pM final concentration) was incubated with various concentrations of the inhibitor diluted in DMSO (0.1% final concentration) for 10 minutes at room temperature in 15 mM Tris-HCl (pH 7.5), 0.01% tween 20, 2 mM DTT in 384 well plate format. To initiate the reaction the biotinylated substrate peptide (250 nM final concentration) that contains the phosphorylation site for Syk was added with magnesium (5 mM final concentration) and ATP (25 μM final concentration). Final volume of the reaction was 10 μL. Phosphorylation of the peptide was allowed to proceed for 45′ at room temperature. To quench the reaction and detect the phosphorylated product, 2 nM of a Europium-anti-phosphotyrosine antibody (Perkin Elmer #AD0161) and 70 nM SA-APC (Perkin-Elmer #CR130-100) were added together in 15 mM Tris pH 7.5, 40 mM EDTA, 0.01% tween 20. Final volume of the quenching solution was 10 μL. The resulting HTRF signal was measured after 30 minutes on an EnVision (Perkin-Elmer) reader using a time-resolved fluorescence protocol.

[1] = IC50 rated in classes, read-out: rhSYK Activity

IC50 [1]	IC50 (values in text, read-out: IC50)	SMILES
< 100 nM		COc1ccnc(Nc2cc(C)cc(-c3cncc(CCC(=O)O)n3)c2)n1 [Example 3.16, 3-(6-{3-[(4-methoxypyrimidin-2-yl)amino]-5-methylphenyl}pyrazin-2-yl)propanoic acid]
< 100 nM		CNC(=O)CNc1ncc(-c2cc(C)cc(Nc3nccc(C(F)(F)F)n3)c2)cn1 [Example 2.44, N-methyl-N~2~-[5-(3-methyl-5-{[4-(trifluoromethyl)pyrimidin-2-yl]amino}phenyl)pyrimidin-2-yl]glycinamide]
< 100 nM		Cc1cc(Nc2nccc(C(F)(F)F)n2)cc(-c2cnc(OC3CCC(C(=O)O)CC3)nc2)c1 (centres unmarked) [Example 3.59, 4-{[5-(3-methyl-5-{[4-(trifluoromethyl)pyrimidin-2-yl]amino}phenyl)pyrimidin-2-yl]oxy}cyclohexanecarboxylic acid]
< 100 nM		Cc1cc(Nc2nccc(C(F)(F)F)n2)cc(-c2cnc(NC3(C(=O)O)CCCC3)nc2)c1 [Example 2.76, 1-{[5-(3-methyl-5-{[4-(trifluoromethyl)pyrimidin-2-yl]amino}phenyl)pyrimidin-2-yl]amino}cyclopentanecarboxylic acid]
< 100 nM	0.6 nM	Cc1cc(Nc2nccc(C(F)F)n2)cc(-c2cnc([C@@H](C)[C@H]3CC[C@H](C(=O)O)CC3)nc2)c1 (single isomer, unassigned) [Example 6.1, trans-4-{1-[5-(3-{[4-(difluoromethyl)pyrimidin-2-yl]amino}-5-methylphenyl)pyrimidin-2-yl]ethyl}cyclohexanecarboxylic acid]
< 100 nM		Cc1cc(Nc2nccc(C(F)(F)F)n2)cc(-c2cnc(N(C)CC(O)CO)nc2)c1 (centres unmarked) [Example 2.43, 3-{methyl[5-(3-methyl-5-{[4-(trifluoromethyl)pyrimidin-2-yl]amino}phenyl)pyrimidin-2-yl]amino}propane-1,2-diol]
< 100 nM	17.2 nM	Cc1cc(Nc2nccc(C(F)(F)F)n2)cc(-c2cnc(NC(C)(CO)CO)nc2)c1 [Example 2.1, 2-methyl-2-{[5-(3-methyl-5-{[4-(trifluoromethyl)pyrimidin-2-yl]amino}phenyl)pyrimidin-2-yl]amino}propane-1,3-diol]
< 100 nM		COCC(Nc1ncc(-c2cc(C)cc(Nc3nccc(C(F)(F)F)n3)c2)cn1)C(=O)O (racemic) [Example 2.38, O-methyl-N-[5-(3-methyl-5-{[4-(trifluoromethyl)pyrimidin-2-yl]amino}phenyl)pyrimidin-2-yl]serine]
100 to 1000 nM		CCOC(=O)CCc1ncc(-c2cc(C)cc(Nc3nccc(C)n3)c2)cn1 [Example 1.7, ethyl 3-(5-{3-methyl-5-[(4-methylpyrimidin-2-yl)amino]phenyl}pyrimidin-2-yl)propanoate]
100 to 1000 nM		CCOC(=O)CCc1cncc(-c2cc(C)cc(Nc3nccc(C(F)(F)F)n3)c2)n1 [Example 3.17, ethyl 3-[6-(3-methyl-5-{[4-(trifluoromethyl)pyrimidin-2-yl]amino}phenyl)pyrazin-2-yl]propanoate]
< 100 nM		Cc1cc(Nc2nccc(C(F)(F)F)n2)cc(-c2cnc(N(C)[C@@H](C)C(=O)O)nc2)c1 [Example 2.9, N-methyl-N-[5-(3-methyl-5-{[4-(trifluoromethyl)pyrimidin-2-yl]amino}phenyl)pyrimidin-2-yl]-L-alanine]
< 100 nM		Cc1cc(Nc2nccc(C(F)(F)F)n2)cc(-c2cnc(NCCO)nc2)c1 [Example 2.62, 2-{[5-(3-methyl-5-{[4-(trifluoromethyl)pyrimidin-2-yl]amino}phenyl)pyrimidin-2-yl]amino}ethanol]
< 100 nM		Cc1cc(Nc2nccc(C(F)(F)F)n2)cc(-c2cnc(N3CCCC[C@H]3C(=O)O)nc2)c1 [Example 2.56, (2S)-1-[5-(3-methyl-5-{[4-(trifluoromethyl)pyrimidin-2-yl]amino}phenyl)pyrimidin-2-yl]piperidine-2-carboxylic acid]
< 100 nM	0.8 nM	Cc1cc(Nc2nccc(C(F)F)n2)cc(-c2cnc([C@H](C)[C@H]3CC[C@H](C(=O)O)[C@H](C)C3)nc2)c1 (single isomer, unassigned) [Example 7.4]
100 to 1000 nM		CCOC(=O)CCc1cnc(-c2cc(C)cc(Nc3nccc(C(F)(F)F)n3)c2)cn1 [Example 3.7, ethyl 3-[5-(3-methyl-5-{[4-(trifluoromethyl)pyrimidin-2-yl]amino}phenyl)pyrazin-2-yl]propanoate]
100 to 1000 nM		Cc1cc(Nc2nccc(C(F)(F)F)n2)cc(-c2ccc(N(CCN(C)C)C(=O)N(C)C)nn2)c1 [Example 3.35, 1-[2-(dimethylamino)ethyl]-3,3-dimethyl-1-[6-(3-methyl-5-{[4-(trifluoromethyl)pyrimidin-2-yl]amino}phenyl)pyridazin-3-yl]urea]

IC50 [1]	IC50 (values in text, read-out: IC50)	SMILES
< 100 nM		Cc1cc(Nc2nccc(C(F)(F)F)n2)cc(-c2cnc(NCCCO)nc2)c1 [Example 2.34, 3-{[5-(3-methyl-5-{[4-(trifluoromethyl)pyrimidin-2-yl]amino}phenyl)pyrimidin-2-yl]amino}propan-1-ol]
100 to 1000 nM		Cc1cc(Nc2nccc(C3CC3)n2)cc(-c2cc(CCC(=O)O)ncn2)c1 [Example 3.54, 3-(6-{3-[(4-cyclopropylpyrimidin-2-yl)amino]-5-methylphenyl}pyrimidin-4-yl)propanoic acid]
< 100 nM		Cc1cc(Nc2nccc(C(F)(F)F)n2)cc(-c2cnc(NC3CCOC3)nc2)c1 (centres unmarked) [Example 2.18, N-{3-methyl-5-[2-(tetrahydrofuran-3-ylamino)pyrimidin-5-yl]phenyl}-4-(trifluoromethyl)pyrimidin-2-amine]
< 100 nM		Cc1cc(Nc2nccc(C(F)(F)F)n2)cc(-c2cnc(NCC(N)=O)nc2)c1 [Example 2.37, N~2~-[5-(3-methyl-5-{[4-(trifluoromethyl)pyrimidin-2-yl]amino}phenyl)pyrimidin-2-yl]glycinamide]
< 100 nM		Cc1cc(Nc2nccc(C(F)(F)F)n2)cc(-c2ccc(-c3cccc(C(=O)O)c3)nn2)c1 [Example 3.32, 3-[6-(3-methyl-5-{[4-(trifluoromethyl)pyrimidin-2-yl]amino}phenyl)pyridazin-3-yl]benzoic acid]
< 100 nM		Cc1cc(Nc2nccc(C(F)(F)F)n2)cc(-c2cnc(NCCC(=O)O)nc2)c1 [Example 2.8, N-[5-(3-methyl-5-{[4-(trifluoromethyl)pyrimidin-2-yl]amino}phenyl)pyrimidin-2-yl]-beta-alanine]
< 100 nM		Cc1cc(Nc2nccc(C(F)(F)F)n2)cc(-c2ccc(-c3ccc(C(=O)O)cc3)nn2)c1 [Example 3.33, 4-[6-(3-methyl-5-{[4-(trifluoromethyl)pyrimidin-2-yl]amino}phenyl)pyridazin-3-yl]benzoic acid]
< 100 nM		Cc1cc(Nc2nccc(C(F)(F)F)n2)cc(-c2cnc(N3CCC[C@H]3C(=O)O)nc2)c1 [Example 2.5, 1-[5-(3-methyl-5-{[4-(trifluoromethyl)pyrimidin-2-yl]amino}phenyl)pyrimidin-2-yl]-L-proline]
100 to 1000 nM and < 100 nM		Cc1cc(Nc2nccc(C)n2)cc(-c2cnc(CCC(=O)O)nc2)c1 [Example 3.55, 3-(5-{3-methyl-5-[(4-methylpyrimidin-2-yl)amino]phenyl}pyrimidin-2-yl)propanoic acid]
< 100 nM		Cc1cc(Nc2nccc(C(F)F)n2)cc(-c2cnc([C@H](C)[C@H]3CC[C@H](C(=O)O)[C@H](C)C3)nc2)c1 (single isomer, unassigned) [Example 7.1]
< 100 nM		Cc1cc(Nc2nccc(C(F)(F)F)n2)cc(-c2cnc(NCC(C)(C)O)nc2)c1 [Example 2.47, 2-methyl-1-{[5-(3-methyl-5-{[4-(trifluoromethyl)pyrimidin-2-yl]amino}phenyl)pyrimidin-2-yl]amino}propan-2-ol]
< 100 nM		Cc1cc(Nc2nccc(C(F)(F)F)n2)cc(-c2cnc(NCC(O)C(F)F)nc2)c1 (centres unmarked) [Example 2.15, 1,1-difluoro-3-{[5-(3-methyl-5-{[4-(trifluoromethyl)pyrimidin-2-yl]amino}phenyl)pyrimidin-2-yl]amino}propan-2-ol]
< 100 nM		Cc1cc(Nc2nccc(C(F)(F)F)n2)cc(-c2cncc(CCC(=O)O)n2)c1 [Example 3.18, 3-[6-(3-methyl-5-{[4-(trifluoromethyl)pyrimidin-2-yl]amino}phenyl)pyrazin-2-yl]propanoic acid]
< 100 nM		Cc1cc(Nc2nccc(C(F)(F)F)n2)cc(-c2cnc(NC3(C(=O)O)CC3)nc2)c1 [Example 2.3, 1-{[5-(3-methyl-5-{[4-(trifluoromethyl)pyrimidin-2-yl]amino}phenyl)pyrimidin-2-yl]amino}cyclopropanecarboxylic acid]
< 100 nM		Cc1cc(Nc2nccc(C(F)(F)F)n2)cc(-c2cnc(NCc3cncn3C)nc2)c1 [Example 2.52, N-[3-methyl-5-(2-{[(1-methyl-1H-imidazol-5-yl)methyl]amino}pyrimidin-5-yl)phenyl]-4-(trifluoromethyl)pyrimidin-2-amine]
< 100 nM		Cc1cc(Nc2nccc(C(F)(F)F)n2)cc(-c2cnc(NC3(C(=O)O)CCC3)nc2)c1 [Example 2.4, l-{[5-(3-methyl-5-{[4-(trifluoromethyl)pyrimidin-2-yl]amino}phenyl)pyrimidin-2-yl]amino}cyclobutanecarboxylic acid]
